Laboratory results: ChEMBL document CHEMBL1201862, “PubChem BioAssay data set” (2004)
Blank lines part the entries; values can stand above or below the molecule they belong to. Activity calls are given as the source filed them. Unless noted, the calls are words filed in the database; no cut-off is given here.

Assays:
[1] = target: Metabotropic glutamate receptor 2 (Homo sapiens, UniProt Q14416); test: off-target activity check on mGlu2 receptor – cell-based, GIRK thallium flux, agonist curve fold shift, selectivity assay for mGlu8/mGlu7 PAM project, profiling panel (AID 743433); type: functional
[2] = target: Metabotropic glutamate receptor 5 (Homo sapiens, UniProt P41594); test: off-target activity check on mGlu5 receptor – cell-based, calcium fluorescence, glutamate curve fold shift, selectivity assay for mGlu8/mGlu7 PAM project, profiling panel (AID 743419); type: functional
[3] = target: Metabotropic glutamate receptor 3 (Homo sapiens, UniProt Q14832); test: Selectivity Studies of mglur8 probe at mglur3.; type: functional
[4] = target: T1, Metabotropic glutamate receptor 4 (Homo sapiens, UniProt Q14833); test: Fold shift mGlu4, mGlu7, mGlu8 using calcium mobilization.; type: functional
[5] = target: Metabotropic glutamate receptor 6 (Homo sapiens, UniProt O15303); test: off-target activity check on mGlu6 receptor – cell-based, GIRK thallium flux, agonist curve fold shift, selectivity assay for mGlu8/mGlu7 PAM project, profiling panel (AID 743421); type: functional
[6] = target: T2, Metabotropic glutamate receptor 7 (Homo sapiens, UniProt Q14831); test: Fold shift mGlu7 using calcium mobilization.; type: functional
[7] = target: Metabotropic glutamate receptor 8 (Homo sapiens, UniProt O00222); test: Fold shift mGlu8 using GIRK assay.; type: functional
[8] = target: T2, Metabotropic glutamate receptor 7; test: glutamate curve shift by mGlu7 potentiators, cell-based, rat, GIRK per title (AID 743386); type: functional
[9] = target: T1, Metabotropic glutamate receptor 4; test: agonist response potentiation at mGlu4 receptor – cell-based, GIRK thallium flux, mechanism study for group III mGlu PAM project, late-stage follow-up (AID 743466); type: functional
[10] = target: Diphosphomevalonate decarboxylase (Streptococcus pneumoniae serotype 2 (strain D39 / NCTC 7466), UniProt Q9FD53); test: diphosphomevalonate decarboxylase inhibitor confirmation – biochemical, cuvette format, coupled NADH fluorescence (AID 1028); type: functional
[11] = target: Mitogen-activated protein kinase 10 (Homo sapiens, UniProt P53779); test: Dose response biochemical screening assay for inhibitors of c-Jun N-Terminal Kinase 3 (JNK3). [Related pubchem assays: 746 ]
Protein Tat = Protein Tat (Human immunodeficiency virus type 1 group M subtype B (isolate HXB2)(HIV-1), UniProt P04608); type: functional;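 further: tat binding to TAR RNA read out by fluorescence polarization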
[12] = viability loss in Vero cells – cytotoxicity control for Vif-APOBEC3G degradation inhibitor project, dose response (AID 1117358); type: functional; settings: Vero
[13] = target: E3 ubiquitin-protein ligase UHRF1 (Homo sapiens, UniProt Q96T88); test: Counterscreen for inhibitors of 5-meCpG-binding domain protein 2 (MBD2): TRFRET-based biochemical high throughput dose response assay to identify inhibitors of binding of ubiquitin-like with PHD and ring finger domains 1 (UHRF1) to methylated oligonucleotide.
[14] = target: G-protein coupled receptor 183 (Homo sapiens, UniProt P32249); test: SAR confirmation of small molecule antagonists of the EBI2 receptor via a luminescent beta-arrestin assa.; type: functional
[15] = toxicity to A549 lung cells – cell-based, plate reader, dry powder, set 6, cytotoxicity control, dose response (AID 743312); type: functional
cells = settings: HEK293

T1 sequence (Q14833 whole entry): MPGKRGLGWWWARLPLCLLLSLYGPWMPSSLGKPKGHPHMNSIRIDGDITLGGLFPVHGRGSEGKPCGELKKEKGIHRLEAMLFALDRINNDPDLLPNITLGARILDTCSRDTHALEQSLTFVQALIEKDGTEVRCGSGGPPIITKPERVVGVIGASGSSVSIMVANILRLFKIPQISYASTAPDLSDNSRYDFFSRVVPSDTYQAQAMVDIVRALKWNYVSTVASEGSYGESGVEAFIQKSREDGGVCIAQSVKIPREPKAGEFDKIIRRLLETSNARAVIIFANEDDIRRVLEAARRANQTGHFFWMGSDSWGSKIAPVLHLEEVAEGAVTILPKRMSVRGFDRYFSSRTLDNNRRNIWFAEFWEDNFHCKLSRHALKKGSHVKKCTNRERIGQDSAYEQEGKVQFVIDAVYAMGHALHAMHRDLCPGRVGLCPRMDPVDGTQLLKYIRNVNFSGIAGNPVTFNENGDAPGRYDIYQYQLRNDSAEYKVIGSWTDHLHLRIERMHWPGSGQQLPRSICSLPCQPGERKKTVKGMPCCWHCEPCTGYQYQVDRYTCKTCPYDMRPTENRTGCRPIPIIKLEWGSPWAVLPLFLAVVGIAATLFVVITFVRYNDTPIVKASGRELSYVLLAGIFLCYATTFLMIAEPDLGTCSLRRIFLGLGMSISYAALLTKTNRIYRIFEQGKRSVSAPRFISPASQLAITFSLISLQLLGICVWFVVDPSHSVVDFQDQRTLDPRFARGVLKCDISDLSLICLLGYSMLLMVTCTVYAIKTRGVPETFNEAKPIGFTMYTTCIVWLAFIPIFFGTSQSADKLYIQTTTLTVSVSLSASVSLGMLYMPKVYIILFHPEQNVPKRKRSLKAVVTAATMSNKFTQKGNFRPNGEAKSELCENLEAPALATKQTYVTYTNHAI
T2 sequence (Q14831 whole entry): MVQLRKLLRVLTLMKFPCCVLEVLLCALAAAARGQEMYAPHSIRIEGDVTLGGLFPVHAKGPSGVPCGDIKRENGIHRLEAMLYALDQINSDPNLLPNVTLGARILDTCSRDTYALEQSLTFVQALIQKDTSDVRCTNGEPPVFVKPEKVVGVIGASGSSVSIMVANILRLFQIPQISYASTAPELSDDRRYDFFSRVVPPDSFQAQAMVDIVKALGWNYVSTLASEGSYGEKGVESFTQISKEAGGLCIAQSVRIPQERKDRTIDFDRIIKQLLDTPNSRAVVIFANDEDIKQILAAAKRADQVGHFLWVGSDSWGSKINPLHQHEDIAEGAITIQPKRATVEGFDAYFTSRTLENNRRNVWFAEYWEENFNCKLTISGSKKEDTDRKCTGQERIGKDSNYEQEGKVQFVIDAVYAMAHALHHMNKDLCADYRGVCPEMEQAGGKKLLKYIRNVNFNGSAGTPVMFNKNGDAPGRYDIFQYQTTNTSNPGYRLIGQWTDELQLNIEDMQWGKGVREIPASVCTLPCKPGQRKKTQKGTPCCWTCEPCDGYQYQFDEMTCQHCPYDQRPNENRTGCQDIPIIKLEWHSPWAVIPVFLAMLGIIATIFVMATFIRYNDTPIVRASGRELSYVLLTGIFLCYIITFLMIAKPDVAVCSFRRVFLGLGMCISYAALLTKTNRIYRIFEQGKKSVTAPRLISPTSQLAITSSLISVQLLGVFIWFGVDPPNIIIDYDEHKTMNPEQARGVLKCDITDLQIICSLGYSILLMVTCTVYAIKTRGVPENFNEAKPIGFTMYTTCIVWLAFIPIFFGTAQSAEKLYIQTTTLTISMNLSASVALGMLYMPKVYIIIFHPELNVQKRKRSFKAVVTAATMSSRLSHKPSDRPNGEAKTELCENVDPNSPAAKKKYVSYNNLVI
Sequence of Metabotropic glutamate receptor 8 (O00222 whole entry): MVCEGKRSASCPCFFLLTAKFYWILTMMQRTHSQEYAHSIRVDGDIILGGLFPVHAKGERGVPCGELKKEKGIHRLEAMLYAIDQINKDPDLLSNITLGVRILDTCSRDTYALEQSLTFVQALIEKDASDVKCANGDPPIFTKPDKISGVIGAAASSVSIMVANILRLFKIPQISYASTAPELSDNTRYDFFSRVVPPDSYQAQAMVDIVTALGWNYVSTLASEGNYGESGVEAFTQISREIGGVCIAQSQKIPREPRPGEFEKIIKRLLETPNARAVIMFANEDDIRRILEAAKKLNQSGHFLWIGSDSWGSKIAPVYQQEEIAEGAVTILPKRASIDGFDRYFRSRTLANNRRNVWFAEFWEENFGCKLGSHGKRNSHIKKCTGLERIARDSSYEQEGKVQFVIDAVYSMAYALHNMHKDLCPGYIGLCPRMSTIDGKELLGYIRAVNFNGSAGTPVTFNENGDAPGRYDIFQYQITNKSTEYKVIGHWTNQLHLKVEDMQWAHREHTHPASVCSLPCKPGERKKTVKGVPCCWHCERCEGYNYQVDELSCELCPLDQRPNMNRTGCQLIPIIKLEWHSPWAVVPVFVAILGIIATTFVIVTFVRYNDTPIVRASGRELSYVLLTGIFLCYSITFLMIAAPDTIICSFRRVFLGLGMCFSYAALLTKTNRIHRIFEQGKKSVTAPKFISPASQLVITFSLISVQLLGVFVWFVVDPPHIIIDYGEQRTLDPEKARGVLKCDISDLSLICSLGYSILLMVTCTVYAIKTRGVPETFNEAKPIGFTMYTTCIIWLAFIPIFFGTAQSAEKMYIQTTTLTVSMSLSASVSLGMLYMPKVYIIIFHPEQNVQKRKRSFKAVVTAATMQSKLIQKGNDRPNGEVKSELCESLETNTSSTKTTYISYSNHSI
Sequence of Diphosphomevalonate decarboxylase (Q9FD53 whole entry): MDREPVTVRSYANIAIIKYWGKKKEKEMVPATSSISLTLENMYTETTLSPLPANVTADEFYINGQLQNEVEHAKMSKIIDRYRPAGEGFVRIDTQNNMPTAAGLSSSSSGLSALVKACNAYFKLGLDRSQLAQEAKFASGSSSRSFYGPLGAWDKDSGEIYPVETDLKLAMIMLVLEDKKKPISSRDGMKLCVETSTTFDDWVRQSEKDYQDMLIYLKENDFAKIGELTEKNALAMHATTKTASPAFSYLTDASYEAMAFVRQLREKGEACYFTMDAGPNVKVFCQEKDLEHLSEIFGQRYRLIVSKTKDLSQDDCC
Sequence of Metabotropic glutamate receptor 5 (P41594 whole entry): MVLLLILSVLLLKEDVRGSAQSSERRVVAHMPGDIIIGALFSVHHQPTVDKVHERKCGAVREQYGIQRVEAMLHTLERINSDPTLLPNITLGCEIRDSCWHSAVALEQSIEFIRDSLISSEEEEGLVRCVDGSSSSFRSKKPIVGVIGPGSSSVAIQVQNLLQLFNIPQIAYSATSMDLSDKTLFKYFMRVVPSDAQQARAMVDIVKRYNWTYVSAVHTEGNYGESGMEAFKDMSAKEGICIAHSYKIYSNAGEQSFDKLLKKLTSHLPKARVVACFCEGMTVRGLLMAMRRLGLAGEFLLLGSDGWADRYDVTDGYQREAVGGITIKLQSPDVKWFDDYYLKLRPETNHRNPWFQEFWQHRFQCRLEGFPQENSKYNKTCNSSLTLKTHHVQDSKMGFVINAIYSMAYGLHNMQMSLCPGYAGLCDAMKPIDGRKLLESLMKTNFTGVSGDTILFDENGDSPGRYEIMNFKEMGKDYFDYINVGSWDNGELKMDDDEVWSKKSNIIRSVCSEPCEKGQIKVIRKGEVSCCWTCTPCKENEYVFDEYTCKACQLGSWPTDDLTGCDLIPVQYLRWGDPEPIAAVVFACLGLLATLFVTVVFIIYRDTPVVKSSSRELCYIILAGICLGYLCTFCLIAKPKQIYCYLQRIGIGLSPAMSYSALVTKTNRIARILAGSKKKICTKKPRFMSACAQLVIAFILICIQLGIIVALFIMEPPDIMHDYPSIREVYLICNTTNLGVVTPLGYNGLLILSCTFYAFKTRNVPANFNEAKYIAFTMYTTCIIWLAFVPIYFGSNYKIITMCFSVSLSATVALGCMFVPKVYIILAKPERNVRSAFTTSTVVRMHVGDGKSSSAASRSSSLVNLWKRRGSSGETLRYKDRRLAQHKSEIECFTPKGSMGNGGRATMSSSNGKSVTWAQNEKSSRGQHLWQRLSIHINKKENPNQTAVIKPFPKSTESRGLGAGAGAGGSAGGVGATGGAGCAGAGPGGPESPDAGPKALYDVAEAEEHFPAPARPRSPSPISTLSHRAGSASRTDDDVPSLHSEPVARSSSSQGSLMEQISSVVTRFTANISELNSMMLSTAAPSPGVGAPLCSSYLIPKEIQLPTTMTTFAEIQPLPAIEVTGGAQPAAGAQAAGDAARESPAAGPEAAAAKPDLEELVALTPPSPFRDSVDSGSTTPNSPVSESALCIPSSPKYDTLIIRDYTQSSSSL
Sequence of E3 ubiquitin-protein ligase UHRF1 (Q96T88 whole entry, the tested form may be a part): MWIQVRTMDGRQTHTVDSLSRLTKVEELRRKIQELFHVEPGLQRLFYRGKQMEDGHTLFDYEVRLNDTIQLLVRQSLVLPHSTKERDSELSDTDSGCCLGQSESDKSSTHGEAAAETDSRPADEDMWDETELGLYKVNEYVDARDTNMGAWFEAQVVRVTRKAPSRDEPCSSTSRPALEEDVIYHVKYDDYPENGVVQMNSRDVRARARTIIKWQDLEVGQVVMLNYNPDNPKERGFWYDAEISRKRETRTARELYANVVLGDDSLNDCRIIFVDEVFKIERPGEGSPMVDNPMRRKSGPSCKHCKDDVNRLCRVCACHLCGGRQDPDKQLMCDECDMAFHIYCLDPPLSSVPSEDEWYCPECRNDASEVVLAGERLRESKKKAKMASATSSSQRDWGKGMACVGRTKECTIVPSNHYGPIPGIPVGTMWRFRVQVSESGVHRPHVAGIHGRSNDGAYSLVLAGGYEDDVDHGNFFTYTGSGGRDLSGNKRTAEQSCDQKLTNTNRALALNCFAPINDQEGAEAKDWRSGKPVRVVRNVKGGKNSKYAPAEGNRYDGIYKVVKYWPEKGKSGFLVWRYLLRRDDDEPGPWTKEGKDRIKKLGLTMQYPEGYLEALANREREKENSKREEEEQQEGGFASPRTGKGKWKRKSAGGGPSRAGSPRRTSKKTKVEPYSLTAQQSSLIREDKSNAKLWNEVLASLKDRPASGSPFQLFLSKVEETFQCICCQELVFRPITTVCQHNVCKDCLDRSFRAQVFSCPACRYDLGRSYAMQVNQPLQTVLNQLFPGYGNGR

- EC50 [1]: 370 nM (inactive)
- EC50 [2]: 350 nM (inactive)
- EC50 [3]: 180 nM (inactive)
- EC50 [4]: 1.78 µM (active)
- EC50 [5]: 390 nM (active)
- EC50 [6]: 16.2 µM (active)
- EC50 [7]: 730 nM
- EC50 [8]: 28.4 µM (active)
- EC50 [9]: 4.1 µM (inactive)
SMILES: COC(=O)c1ccc(-n2c(C)cc(C(=O)CSc3ccc(NC(C)=O)cc3)c2C)cc1

SMILES: CCCNC(=O)c1ccccc1-n1sc2ccccc2c1=O
- IC50 [10]: 31.3 µM (active)

- IC50 [11]: 23.2 µM (not active)
SMILES: COc1ccc(C(=O)NCc2nc3ccccc3[nH]2)cc1OC

- IC50 (Protein Tat): > 100 µM (active)
SMILES: CN1CCc2nc3ccc(Cl)cc3c(-c3ccccc3Cl)c2C1
- CC50 [12]: > 40 µM (active)

- IC50 [13]: 25.7 µM (inactive)
SMILES: CC(=O)Nc1sc2c(c1-c1nc3ccccc3s1)CCN(C)C2

- IC50 [14]: 2.21 nM (active)
SMILES: O=C(/C=C/c1ccc(Br)cc1)N1CCN(Cc2cc(F)cc(F)c2)CC1

SMILES: Cc1cccc(OCCn2c(=S)[nH]c3ccc(C(F)(F)F)cc32)c1
- AC50 [15]: 15.6 µM (active)
- AC50 (cells): 35.9 µM (active)
